According to patent US11613528B2, “Small molecule inhibitors of shared epitope-calreticulin interactions and methods of use” (The Regents of the University of Michigan, priority 2017, dated 2023):
pIC50: −log10 of the molar value. “Also recorded” adds a separate entry of the source.

Tests used:
[1] = permeability through Caco-2 cell layers; assay type: in vitro ADME; settings: human
RAW 264.7 cells = assay: in vitro osteoclast (OC) differentiation assay; assay type: cell-based, mouse
Protocol: OC differentiation was determined at day 5.
RAW 264.7 cells were cultured in OC-differentiating conditions in the presence or absence of the racemic mix (left) of HL840, the S-enantiomer (middle), or the R-enantiomer (right) at different concentrations, and their inhibitory effect on OC differentiation was determined at day 5.
To differentiate osteoclast (OC) from RAW 264.7 mouse macrophages, cells were cultured in the same way (2×10^4 per well), except that RANKL was added at a concentration of 20 ng/ml, for 5-6 days in the presence or absence of various compounds at different concentrations. To quantify the number of OCs, cultures were fixed and stained for tartrate-resistant acid phosphatase (TRAP) activity using an acid phosphatase kit (Kamiya Biomedical Company, Seattle, Wash.) according to the manufacturer's instructions. TRAP-positive multinucleated OCs (>3 nuclei) were counted using a tissue culture inverted microscope. All experiments were performed in triplicates and repeated 4 (C & D, n=12) or 3 (E-L; n=9) times. Percent inhibition of OC formation relative to cultures with PBS were calculated and presented as dose-response curves. IC50 values were calculated using the GraphPad-Prism software.

SE-CRT interactions = assay: inhibition of SE-CRT interactions; assay type: binding
SKG mice = assay: pre-clinical model of RA in SKG mice; assay type: in vivo
[2] = oral availability in vivo (oral gavage, serum levels); design: species or system DBA/1 mice
mice with CIA = assay: collagen induced arthritis (CIA) animal model; assay type: in vivo, DBA/1 mice; settings: oral, doses as low as 1.25 μg/Kg body weight twice weekly
Protocol: Arthritis incidence was recorded.
2-tailed Student t-test; **, p<0.005.
Specifically, experiments were conducted with an animal model of collagen induced arthritis (CIA).

SMILES	Papp A→B [1]	pIC50 (RAW 264.7 cells; Mus musculus, RAW264.7, 120 h, RAW 264.7 cells in OC-differentiating conditions, OC differentiation at day 5, read-out: anti-osteoclast (OC) activity IC50)	inhibition of SE-CRT interactions (SE-CRT interactions)	therapeutic effects (SKG mice)	oral availability in vivo [2]	arthritis severity (mice with CIA)	bone destruction (radiologic bone damage) (mice with CIA)	disease development (arthritis incidence) (mice with CIA)	enantiomer-specific activity (e.g., inhibition of SE-CRT interaction and signaling) of racemic HL840 (RAW 264.7 cells; inhibitory effect on OC differentiation at day 5, FIG. 3)
Cn1cc(/C=C/C(=O)N2CCC[C@@H](Cn3cc(CN)nn3)C2)cn1 (racemic) [HL840, (R,E)-(1-((1-(3-(1-methyl-1H-pyrazol-4-yl)acryloyl)piperidin-3-yl)methyl)-1H-1,2,3-triazol-4-yl)methanaminium]	5.6 ×10⁻⁶ cm/s	10.70	potent, competitive inhibition	Significant therapeutic effects	moderately orally available; also recorded: orally available in vivo	decreased arthritis severity	prevented bone destruction	strongly inhibited disease development	
Cn1cc(/C=C/C(=O)N2CCC[C@@H](Cn3cc(CN)nn3)C2)cn1 (single isomer, unassigned) [(R)-enantiomer]									responsible for all activity
